Laboratory results taken from patent US20260124311A1, “POLYMER-DRUG CONJUGATES FOR STING PATHWAY ACTIVATION” (Vanderbilt University, priority 2022, published 2026).

Experiments:
[1] = test system: IRF and NF-kb pathway; experiment: THP-1 Dual reporter assay of IRF and NF-kb pathway activation; format: cell-based, human; details: FIG. 19A-B
Protocol: Activation of STING. THP1-Dual cells (InvivoGen) were cultured in Roswell Park Memorial Institute (RPMI) 1640 Medium (Gibco) supplemented with 2 mM L-glutamine, 25 mM HEPES, 10% heat-inactivated fetal bovine serum (HI-FBS; Gibco), 100 U mL^−1, penicillin/100 μg mL^−1, streptomycin (Gibco), and 100 μg/mL Normocin. Cells were subjected to 10 μg/mL Blasticidin and 100 μg/mL Zeocin for continual selection after every cell passage. 96-well plates (REF 655180; Greiner Bio-One) were used for screening agonist activity. Reporter cells were seeded at 25,000 cells/well in 100 μL media and treatments were administered in 100 μL of medium. Results were collected 24 hours after treatment using a Quanti-Luc™ (InvivoGen) assay on cell supernatants following manufacturer's instructions. Luminescence was quantified using a plate reader (Synergy H1 Multi-Mode Microplate Reader; Biotek) after supernatants were transferred to opaque-bottom 96-well plates (REF 655073; Greiner Bio-One).

[2] = test system: STING knockout THP1 Dual cell line; experiment: STING knockout THP1 Dual cell line reporter assay; format: cell-based, human; details: FIG. 19C-D
[3] = test system: Interferon-β, CXCL10, TNF, IL-6; experiment: PCR analysis of kinetics of STING-mediated gene expression; format: cell-based
[4] = test system: GFP-STING expressing murine embryonic fibroblasts; details: FIG. 21

diABZI(CTA)-DMA-50k [50 kDa diABZI-DMA (33)]
IRF and NF-kb pathway activation [1]: both signaling pathways are engaged
IRF and NF-κβ responses in STING knockout cells [2]: lack of activity
time to activation of STING signaling after endocytosis [3]: ≤ 2 h
STING activation dynamics (STING-puncta, confocal) [4]: delayed STING activation
